The values below are quoted from earlier work in patent publication US20100255099A1, “CLAVULANATE FORMULATION FOR NEUROPROTECTION AND TREATMENT OF NEURODEGENERATIVE DISORDERS” (REXAHN PHARMACEUTICALS, INC., priority 2007, published 2010).

For data set [1] the following is noted: administered i.p. at less than 1 μg/kg; cited from earlier work.
The conditions of data set [2]: doses ranging from 10 ng to 10 μg/kg (i.p.); cited from earlier work.
The conditions of data set [3]: rats, i.p. dose of 1 μg/kg; cited from earlier work.

For `O=C(O)[C@H]1/C(=C/CO)O[C@@H]2CC(=O)N21` [clavulanic acid], the anxiolytic activity entry in data set [1] is listed as “anxiolytic activity”. Also, the “CNS activity and behavior” value in data set [2] is “alter CNS activity and behavior”. The neuroprotectant activity result in data set [3] is on record as “potent neuroprotectant activity”.
